Test results from patent publication US11759444B2, “Methods for cancer and immunotherapy using prodrugs of glutamine analogs” (The Johns Hopkins University, priority 2015, dated 2023).
“Also recorded” adds a separate entry of the source.

Key:
EL4 lymphoma = test: EL4 mouse lymphoma model; type: in vivo; settings: monotherapy
B16 melanoma = B16 melanoma mouse model; type: in vivo; settings: monotherapy
CT26 cells = test: CT26 colon cancer tumor model; type: in vivo, BALB/c mice; settings: for CT26 anti-tumor response in combination with anti-PD1: combination with anti-PD-1
Protocol: (§1) Tumor growth and survival experiments: Tumor injections were administered in the right flank. For the MC38 and MC38OVA models, C57BL/6 WT mice were injected with 5×10^5 MC38 or MC38OVA cells (s.c.) cultured in DMEM-based media. For the CT26 model, BALB/c mice were injected with 5×10^5 CT26 cells (s.c.) cultured in RPMI-based media. Compound 25 was dissolved in 2.5% ethanol in PBS (v/v) which was administered for all vehicle-treated control experiments. For MC38 and MC38OVA experiments, mice were treated with Compound 25 or vehicle by daily gavage with 1 mg/kg/day in 100 uL for days 10-14 and with 0.3 mg/kg/day for day 15-24. For CT26 experiments, mice were treated with compound 25 or vehicle by daily gavage with 1 mg/kg/day in 100 uL for days 7-11 and with 0.3 mg/kg/day for day 12-21.

MC38 cells [1] = test: MC38 colon cancer tumor model; type: in vivo, C57BL/6 mice; settings: for MC38 tumor response, monotherapy (words): 1 mg/kg followed by 0.3 mg/kg, 14 days, wild type mice; for rejection of tumor re-challenge by mice cured with monotherapy: MC38 rechallenge on opposite flank; for MC38 response in combination with anti-PD1: combination with anti-PD-1
Protocol: as §1

EO771 cells = test: EO771 breast cancer model; type: in vivo, C57BL/6 mice
Protocol: Mouse: C57BL/6 (both male and female mice, 6-8 weeks of age) were purchased from Jackson Laboratories. The studies were conducted under a protocol approved by the Johns Hopkins Animal Care and Use Committee.
Cell Line: EO771 breast cancer cell lines were purchased from CH3 BioSystems.
Treatment with immunotherapy alone or combined immunotherapy with compound 25: On days 9, 12, and 15, mice were injected with or without 100 μg anti-PD1 alone or 100 μg anti-PD1 in combination with 100 μg anti-CTLA4, followed by treatment with or without compound 25. Each individual mouse tumor growth and survival curves were recorded.

3LL cells = test: 3LL tumor model; type: in vivo, C57BL/6J mice
Description: 5×10^6 3 LL cells were implanted subcutaneously into the right flank in C57BL/6J male mice.

B16-OVA melanoma cells = test: B16-OVA melanoma model with adoptive cellular therapy; type: in vivo, C57BL/6 mice; settings: 1 mg/kg/day days 7-9 before transfer on day 10
Protocol: Adoptive Cellular Therapy: OVA-expressing B16 melanoma model, C57BL/6 WT mice received a s.c. injection of 2×10^5 B16-OVA melanoma cells cultured under OVA selection media containing 400 μg/ml G418 (Life technologies). Mice were treated with compound 25 or vehicle by daily gavage with 1 mg/kg/day in 100 uL for days 7-9 post tumor inoculation. Ten days after tumor injection, mice received an adoptive transfer of 1.5×10^6 activated OT1 cells, which had been stimulated in vitro with […] peptide for 48 h, expanded in IL-2 (1 ng/mL) for 24 h and isolated with Ficol gradient centrifugation. Mice were randomized based on tumor size before transfer of activated OT1 cells for adoptive transfer experiments. Tumor burden was assessed every 2-4 days by measuring length and width of tumor. Tumor volume was calculated using the formula V=(L×W×W)/2, where V is tumor volume, W is tumor width, and L is tumor length. Mice were sacrificed when tumor reached 2 cm in any dimension, became ulcerate or necrotic, or caused functional deficits.

[2] = microsomes
[3] = microsomes; remark: listed apart in the source
MC38 cells [4] = test: MC38 colon cancer tumor model; type: in vivo, C57BL/6 mice; settings: growth rate recovered after several days
4T1 tumor cells = test: 4T1 breast cancer model; settings: for 4T1 tumor growth and survival, monotherapy (words): 1 mg/kg daily
[5] = 1 mg/kg daily day 7 to 16, tumors evaluated day 21

CCOC(=O)[C@H](CCC(=O)C=[N+]=[N-])NC(=O)[C@@H](N)CC(C)C [Compound 25]
lymphoma tumor growth (EL4 lymphoma): marked decrease in tumor growth | melanoma tumor growth (B16 melanoma): marked decrease in tumor growth | CT26 tumor model, comparison with CB-839 (CT26 cells; 25 short daily course vs CB-839 continuous BID dosing): superior to CB-839 | CT26 anti-tumor response in combination with anti-PD1 (CT26 cells): unexpectedly enhances the response to anti-PD1 | CT26 anti-tumor response in combination with anti-PD1 (CT26 cells; listed as compound 25): significant anti-tumor responses | CT26 tumor response and survival, monotherapy (words) (CT26 cells): robust response and improved overall survival | CT26 tumor response and survival, monotherapy (words) (CT26 cells; listed as compound 25): marked decrease in tumor growth | MC38 tumor response, monotherapy (words) (MC38 cells [1]): complete and durable response | MC38 tumor response, monotherapy (words) (MC38 cells [1]; listed as compound 25): marked decrease in tumor growth; also recorded: durable cures; also recorded: significant control of the tumor including complete regression in a proportion of the mice | rejection of tumor re-challenge by mice cured with monotherapy (MC38 cells [1]): immunologically reject tumors upon re-challenge | rejection of tumor re-challenge by mice cured with monotherapy (MC38 cells [1]; listed as compound 25): More than three-quarters | MC38 response in combination with anti-PD1 (MC38 cells [1]): conditions tumors to be eliminated by anti-PD1 therapy; also recorded: rescues anti-PD1 failures | MC38 response in combination with anti-PD1 (MC38 cells [1]; listed as compound 25): unexpected increase in both tumor regression and complete responses | EO771 tumor growth and survival, single agent (EO771 cells; agent alone): delayed tumor growth and increased survival | EO771 tumor growth and survival, combination with anti-PD-1 (EO771 cells; compound 25 + anti-PD-1): surprising increase in inhibition of tumor growth and survival | 3LL tumor growth (3LL cells; 1 mg/kg from day 7, then 0.3 mg/kg): reduced tumor growth | ratio of CD8 cells to MDSCs+ and TANs, blood and TIL (3LL cells; 3LL tumor-bearing mice): increased ratio of CD8 cells to MDSCs+ and TANs | tumor control and survival with adoptive transfer of activated OT1 T cells (B16-OVA melanoma cells): unexpected improvement in tumor control and survival | liver microsomal stability, human [2]: moderate-high stability | liver microsomal stability, pig [3]: moderate-high stability | MC38 tumor growth in RAG2−/− mice (MC38 cells [4]): some initial effect on tumor growth | 4T1 tumor growth and survival, monotherapy (words) (4T1 tumor cells): robust response and improved overall survival | CD11b+ cells and G-MDSCs in circulating blood (4T1 tumor cells; 1 mg/kg daily day 7 to 16, flow cytometry days 6, 9, 17): reduced CD11b+ cells and G-MDSCs | TNF alpha in tumor associated macrophages (4T1 tumor cells; [5]): increased TNF alpha | fibrocytes in tumor (4T1 tumor cells; [5]): reduced fibrocytes | 4T1-Luc tumor luminescence, comparison with anti-PD1 (4T1 tumor cells; 1 mg/kg daily from day 7, IVIS imaging day 13): inhibited mammary carcinoma cell proliferation better than anti-PD1 | 4T1 tumor growth and survival, monotherapy (words) (4T1 tumor cells; listed as compound 25): inhibited the growth of mammary carcinoma tumor cells; also recorded: modest decrease in tumor growth | spontaneous lung metastasis (4T1 tumor cells; 1 mg/kg from day 7, then 0.3 mg/kg, lungs harvested day 30): significantly reduces lung metastasis | 4T1 breast cancer model, comparison with CB-839 (4T1 tumor cells; 25 daily days 7-22 (1.0 mg/kg/d) vs CB-839 BID days 1-29): superior to CB-839 | 4T1 tumor growth and survival, combination with anti-PD1 and anti-CTLA4 (4T1 tumor cells; compound 25 + anti-PD1 + anti-CTLA-4): substantial decrease of tumor growth and increase in survival time
